Source: patent US20250345295A1, “LMK235 COMPOSITIONS AND METHODS” (UNM Rainforest Innovations, priority 2024, published 2025)
“Also recorded” adds a separate entry of the source.

How the values were obtained:
[1] = test system: small (<30 μm) TG neurons from naïve mice; test: Whole-cell patch-clamp electrophysiology, TG neurons from naïve mice; format: cell-based, mouse; settings: 13 μM for one hour vs 0.1% DMSO
Experimental: (§1) The excitability of TG neurons is directly linked to the pathophysiology of trigeminal neuropathic pain. In order to determine the effect of LMK235 on TG neurons from FRICT-ION mice, whole-cell patch-clamp electrophysiological recordings were made from small (<30 μm) TG neurons in the presence of LMK235 (13 μM) or vehicle (0.1% DMSO). TG neurons were obtained from FRICT-ION mice at three weeks post injury or naïve mice. The TG neurons were treated for one hour in vitro with either LMK235 or vehicle control prior to recording (FIG. 7).
(§2) Neurons with a diameter of <30 μm were identified by infrared differential interference contrast (IR-DIC) imaging with a microscope connected to an Olympus digital camera. Current clamp recordings were performed using a Molecular Devices Multiclamp 700B (Scientifica, UK). Signals were filtered at 5 KHz, acquired at 50 KHz using a Molecular Devices 1550B converter (Scientifica, UK) and recorded using Clampex 11 software (Molecular Devices, Scientifica, UK). Electrodes were pulled with a Zeitz puller (Werner Zeitz, Martinsreid, Germany) from borosilicate thick glass (GC150F, Sutter Instruments). Electrode resistance was 5-8 MΩ. Bridge balance was applied to all recordings. Intracellular solution contained (in mM) 125 K-gluconate, 6 KCl, 10 HEPES, 0.1 EGTA, 2 Mg-ATP, pH 7.3 with KOH, and osmolarity of 290-310 mOsm. Artificial cerebrospinal fluid (aCSF) contained (in mM) 113 NaCl, 3 KCl, 25 NaHCO3, 1 NaH2PO4, 2 CaCl2), 2 MgCl2, and 11-glucose. For whole-cell current clamp recordings, to evaluate the basic input-output action potential frequency response to hyperpolarization and depolarization, DC current was injected from 0 pA to +200 pA in 10-pA increments for a duration of 500 milliseconds at the cell's intrinsic resting membrane potential. Data acquisition was sampled at 20 kHz and filtered at 2.4 kHz. Recordings with a series resistance greater than 20 MΩ were discarded, and series resistance was compensated to 70%. In response to a −100 pA hyperpolarizing pulse with 500 millisecond duration, voltage sag amplitude was measured. Sag ratio was calculated using the following equation as described previously (Fan et al., Front Cell Neurosci 2016 Mar. 24; 10:74):
(§3) where Vpeak is the maximum voltage deflection and Vss is the steady state voltage at the end of the hyperpolarizing pulse.
(§4) Male mice were euthanized three weeks after inducing the FRICT-ION model. The TG were dissected, minced, and dissociated in an enzymatic combination containing sterile, calcium-free, and magnesium-free HBSS (Cat #14170112, Gibco), papain suspension (32.7 U/mgP, Cat #LS003126; Worthington, Lakewood, NJ), L-Cysteine (Cat #C7352-25g, Sigma), and saturated bicarbonate (Cat #S5761-500g, Sigma) solution. […]

HDAC5 protein = test: Western blot of TG HDAC5 protein; format: in vivo, mouse; settings: for TG HDAC5 protein levels: LMK235 treatment
Experimental: Mice were euthanized with pentobarbital (FatalPlus, 480 mg/kg) and both ipsilateral and contralateral TG were removed. TG were washed immediately in PBS and stored at −80° C. Protein from TG tissue was extracted following homogenization using a pestle and 500 μL of 1× RIPA buffer (Thermo Fisher Scientific, Inc., Waltham, MA, Cat #89,900). Samples were put on a rocking shaker for two hours and then centrifuged, and the supernatant removed to a new tube. Sample was assayed for total protein (Bradford, Thermo Fisher Scientific, Inc., Waltham, MA). Samples were then prepared for electrophoresis by mixing with 2× sample buffer and boiling for five minutes at 100° C. for denaturation.
Proteins were loaded on a 12% Tris-Glycine polyacrylamide gradient gel (Bio-Rad Laboratories, Inc., Hercules, CA) and transferred to a PVDF membrane (MilliporeSigma, Burlington, MA). Membrane was blocked for an hour with 5% nonfat milk in TBST buffer at room temperature and incubated at 4° C. with anti-HDAC5 antibody overnight (Abcam, Cambridge, UK, #ab55403, #ab2772, #ab170935). The membrane was subsequently washed with TBST and then incubated with anti-rabbit secondary with HRP for one hour at room temperature (Abcam ab6721, diluted 1:1000 in TBST). The washing was repeated and then the blot developed with chemiluminescent substrate (Thermo Fisher Scientific, Inc., Waltham, MA Cat #32,106). The blot was then imaged using a Li-Cor Odyssey FC imaging system. Signal intensity was normalized to actin (Abcam ab8227, 1:2000) or tubulin (Abcam #ab10287), which was used as a loading control. Signal intensity was analyzed using ImageJ for comparisons.

[2] = test system: small (<30 μm) TG neurons from FRICT-ION mice; test: Whole-cell patch-clamp electrophysiology, TG neurons from FRICT-ION mice; format: cell-based, mouse; settings: 13 μM for one hour vs 0.1% DMSO
Experimental: as §1, §2, §3, §4

Cc1cc(C)cc(C(=O)NOCCCCCC(=O)NO)c1 [LMK235, N-[[6-(Hydroxyamino)-6-oxohexyl]oxy]-3,5-dimethyl-benzamide]
electrophysiological properties [1]: not significantly altered | resting membrane potential (RMP) [1]: no significant differences | rheobase [1]: no significant differences | sag ratio [1]: no effect | TG HDAC protein levels vs untreated FRICT-ION mice (HDAC5 protein; LMK235-treated FRICT-ION mice, males and females): significantly lower | TG HDAC5 protein levels (HDAC5 protein; female FRICT-ION mice): to naïve levels | TG HDAC5 protein levels (HDAC5 protein; male FRICT-ION mice): below naïve levels | distribution of high (>200 pA) vs low (<200 pA) threshold TG neurons [2]: higher proportion of high threshold (>200 pA) neurons | resting membrane potential (RMP) [2]: not significantly altered; also recorded: no significant differences | rheobase [2]: not significantly altered; also recorded: no significant differences | sag ratio [2]: significantly lower; also recorded: reduced
